Structures can show the parent of a compound that is named as a salt.
Assays:
[1] = test system: bacterial strains that express the class D cephalosporinase OXA-15; assay: Standard BLI potentiation MIC / synergy MIC assays, strains expressing OXA-15; format: cell-based, E. coli; details: in combination with a β-lactam; comparator Avibactam (CCC)
Method in brief: (§1)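 Broth microdilution in cation-adjusted Mueller Hinton broth per CLSI M07-A9, ~10^5 CFU/mL, 18-20 h at 37 °C with aeration; engineered E. coli carrying β-lactamase plasmids kept on 25 μg/mL tetracycline. β-lactam MIC measured in 2-fold dilutions (128-0.13 μg/mL) with BLI fixed at 4 μg/mL; sMIC titrates BLI against a fixed β-lactam concentration. MIC = lowest concentration without visible turbidity.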

[2] = test system: bacterial strains that express KPC β-lactamases; assay: Standard BLI potentiation MIC / synergy MIC assays, strains expressing KPC β-lactamases; format: cell-based; details: in combination with a β-lactam; comparator Avibactam
Method in brief: as §1

O=C1N2C[C@@H](CC[C@H]2c2nnc(CCNCCO)o2)N1OS(=O)(=O)O [Compound 736, (2S,5R)-2-(5-(2-((2-hydroxyethyl)amino)ethyl)-1,3,4-oxadiazol-2-yl)-7-oxo-1,6-diazabicyclo[3.2.1]octan-6-yl hydrogen sulfate]
activity against bacterial strains that express the class D cephalosporinase OXA-15, compared with Avibactam [1]: more active than Avibactam | activity and/or spectrum of activity against bacterial strains that express KPC β-lactamases, compared with Avibactam [2]: more active than Avibactam for at least one, bacterial strain that expresses KPC β-lactamase and/or show a better spectrum of activity

N=C(N)NC[C@H](O)c1nnc([C@@H]2CC[C@@H]3CN2C(=O)N3OS(=O)(=O)O)o1 [Compound 732, (2S,5R)-2-(5-((S)-2-guanidino-1-hydroxyethyl)-1,3,4-oxadiazol-2-yl)-7-oxo-1,6-diazabicyclo[3.2.1]octan-6-yl hydrogen sulfate]
activity against bacterial strains that express the class D cephalosporinase OXA-15, compared with Avibactam [1]: more active than Avibactam | activity and/or spectrum of activity against bacterial strains that express KPC β-lactamases, compared with Avibactam [2]: more active than Avibactam for at least one, bacterial strain that expresses KPC β-lactamase and/or show a better spectrum of activity

O=C1N2C[C@@H](CC[C@H]2c2nnc([C@H]3CNCCN3)o2)N1OS(=O)(=O)O [Compound 779, (2S,5R)-7-oxo-2-(5((R)-piperazin-2-yl)-1,3,4-oxadiazol-2-yl)-1,6-diazabicyclo[3.2.1]octan-6-yl hydrogen sulfate]
activity against bacterial strains that express the class D cephalosporinase OXA-15, compared with Avibactam [1]: more active than Avibactam | activity and/or spectrum of activity against bacterial strains that express KPC β-lactamases, compared with Avibactam [2]: more active than Avibactam for at least one, bacterial strain that expresses KPC β-lactamase and/or show a better spectrum of activity

N[C@H]1C[C@@H](CCc2nnc([C@@H]3CC[C@@H]4CN3C(=O)N4OS(=O)(=O)O)o2)C1 [Compound 754, (2S,5R)-2-(5-(2-((1s,3S)-3-aminocyclobutyl)ethyl)-1,3,4-oxadiazol-2-yl)-7-oxo-1,6-diazabicyclo[3.2.1]octan-6-yl hydrogen sulfate]
activity against bacterial strains that express the class D cephalosporinase OXA-15, compared with Avibactam [1]: more active than Avibactam | activity and/or spectrum of activity against bacterial strains that express KPC β-lactamases, compared with Avibactam [2]: more active than Avibactam for at least one, bacterial strain that expresses KPC β-lactamase and/or show a better spectrum of activity

N[C@H]1C[C@@H](Cc2nnc([C@@H]3CC[C@@H]4CN3C(=O)N4OS(=O)(=O)O)o2)C1 [Compound 728, (2S,5R)-2-(5-(((1s,3R)-3-aminocyclobutyl)methyl)-1,3,4-oxadiazol-2-yl)-7-oxo-1,6-diazabicyclo[3.2.1]octan-6-yl hydrogen sulfate]
activity against bacterial strains that express the class D cephalosporinase OXA-15, compared with Avibactam [1]: more active than Avibactam | activity and/or spectrum of activity against bacterial strains that express KPC β-lactamases, compared with Avibactam [2]: more active than Avibactam for at least one, bacterial strain that expresses KPC β-lactamase and/or show a better spectrum of activity

NCCCCc1nnc([C@@H]2CC[C@@H]3CN2C(=O)N3OS(=O)(=O)O)o1 [Compound 735, (2S,5R)-2-(5-(4-aminobutyl)-1,3,4-oxadiazol-2-yl)-7-oxo-1,6-diazabicyclo[3.2.1]octan-6-yl hydrogen sulfate]
activity against bacterial strains that express the class D cephalosporinase OXA-15, compared with Avibactam [1]: more active than Avibactam | activity and/or spectrum of activity against bacterial strains that express KPC β-lactamases, compared with Avibactam [2]: more active than Avibactam for at least one, bacterial strain that expresses KPC β-lactamase and/or show a better spectrum of activity

O=C1N2C[C@@H](CC[C@H]2c2nnc(C3CCNC3)o2)N1OS(=O)(=O)O (stereo partly drawn) [Compound 710, (2S,5R)-7-oxo-2-(5-(pyrrolidin-3-yl)-1,3,4-oxadiazol-2-yl)-1,6-diazabicyclo[3.2.1]octan-6-yl hydrogen sulfate]
activity against bacterial strains that express the class D cephalosporinase OXA-15, compared with Avibactam [1]: more active than Avibactam | activity and/or spectrum of activity against bacterial strains that express KPC β-lactamases, compared with Avibactam [2]: more active than Avibactam for at least one, bacterial strain that expresses KPC β-lactamase and/or show a better spectrum of activity

O=C1N2C[C@@H](CC[C@H]2c2nnco2)N1OS(=O)(=O)O [Compound 701, (2S,5R)-2-(1,3,4-oxadiazol-2-yl)-7-oxo-1,6-diazabicyclo[3.2.1]octan-6-yl hydrogen sulfate]
activity against bacterial strains that express the class D cephalosporinase OXA-15, compared with Avibactam [1]: more active than Avibactam | activity and/or spectrum of activity against bacterial strains that express KPC β-lactamases, compared with Avibactam [2]: more active than Avibactam for at least one, bacterial strain that expresses KPC β-lactamase and/or show a better spectrum of activity

C[n+]1ccc(-c2nnc([C@@H]3CC[C@@H]4CN3C(=O)N4OS(=O)(=O)[O-])o2)cc1 [Compound 782, (2S,5R)-2-(5-(1-methylpyridin-1-ium-4-yl)-1,3,4-oxadiazol-2-yl)-7-oxo-1,6-diazabicyclo[3.2.1]octan-6-yl sulfate]
activity against bacterial strains that express the class D cephalosporinase OXA-15, compared with Avibactam [1]: more active than Avibactam | activity and/or spectrum of activity against bacterial strains that express KPC β-lactamases, compared with Avibactam [2]: more active than Avibactam for at least one, bacterial strain that expresses KPC β-lactamase and/or show a better spectrum of activity

N=C(N)N1CC(c2nnc([C@@H]3CC[C@@H]4CN3C(=O)N4OS(=O)(=O)O)o2)C1 [Compound 709, (2S,5R)-2-(5-(1-carbamimidoylazetidin-3-yl)-1,3,4-oxadiazol-2-yl)-7-oxo-1,6-diazabicyclo[3.2.1]octan-6-yl hydrogen sulfate]
activity against bacterial strains that express the class D cephalosporinase OXA-15, compared with Avibactam [1]: more active than Avibactam | activity and/or spectrum of activity against bacterial strains that express KPC β-lactamases, compared with Avibactam [2]: more active than Avibactam for at least one, bacterial strain that expresses KPC β-lactamase and/or show a better spectrum of activity

O=C1N2C[C@@H](CC[C@H]2c2nnc(COC3CNC3)o2)N1OS(=O)(=O)O [Compound 744, (2S,5R)-2-(5-((azetidin-3-yloxy)methyl)-1,3,4-oxadiazol-2-yl)-7-oxo-1,6-diazabicyclo[3.2.1]octan-6-yl hydrogen sulfate]
activity against bacterial strains that express the class D cephalosporinase OXA-15, compared with Avibactam [1]: more active than Avibactam | activity and/or spectrum of activity against bacterial strains that express KPC β-lactamases, compared with Avibactam [2]: more active than Avibactam for at least one, bacterial strain that expresses KPC β-lactamase and/or show a better spectrum of activity

O=C1N2C[C@@H](CC[C@H]2c2nnc([C@@H]3CCNC3)o2)N1OS(=O)(=O)O [Compound 759, (2S,5R)-7-oxo-2-(5((R)-pyrrolidin-3-yl)-1,3,4-oxadiazol-2-yl)-1,6-diazabicyclo[3.2.1]octan-6-yl hydrogen sulfate]
activity against bacterial strains that express the class D cephalosporinase OXA-15, compared with Avibactam [1]: more active than Avibactam | activity and/or spectrum of activity against bacterial strains that express KPC β-lactamases, compared with Avibactam [2]: more active than Avibactam for at least one, bacterial strain that expresses KPC β-lactamase and/or show a better spectrum of activity

N=C(N)N1CC(NCc2nnc([C@@H]3CC[C@@H]4CN3C(=O)N4OS(=O)(=O)O)o2)C1 [Compound 746, (2S,5R)-2-(5-(((1-carbamimidoylazetidin-3-yl)amino)methyl)-1,3,4-oxadiazol-2-yl)-7-oxo-1,6-diazabicyclo[3.2.1]octan-6-yl hydrogen sulfate]
activity against bacterial strains that express the class D cephalosporinase OXA-15, compared with Avibactam [1]: more active than Avibactam | activity and/or spectrum of activity against bacterial strains that express KPC β-lactamases, compared with Avibactam [2]: more active than Avibactam for at least one, bacterial strain that expresses KPC β-lactamase and/or show a better spectrum of activity

O=C1N2C[C@@H](CC[C@H]2c2nnc(CC3CCNC3)o2)N1OS(=O)(=O)O (stereo partly drawn) [Compound 764, (2S,5R)-7-oxo-2-(5-(pyrrolidin-3-ylmethyl)-1,3,4-oxadiazol-2-yl)-1,6-diazabicyclo[3.2.1]octan-6-yl hydrogen sulfate]
activity against bacterial strains that express the class D cephalosporinase OXA-15, compared with Avibactam [1]: more active than Avibactam | activity and/or spectrum of activity against bacterial strains that express KPC β-lactamases, compared with Avibactam [2]: more active than Avibactam for at least one, bacterial strain that expresses KPC β-lactamase and/or show a better spectrum of activity

N[C@@H]1CN[C@H](c2nnc([C@@H]3CC[C@@H]4CN3C(=O)N4OS(=O)(=O)O)o2)C1 [Compound 760, (2S,5R)-2-(5-((2S,4S)-4-aminopyrrolidin-2-yl)-1,3,4-oxadiazol-2-yl)-7-oxo-1,6-diazabicyclo[3.2.1]octan-6-yl hydrogen sulfate]
activity against bacterial strains that express the class D cephalosporinase OXA-15, compared with Avibactam [1]: more active than Avibactam | activity and/or spectrum of activity against bacterial strains that express KPC β-lactamases, compared with Avibactam [2]: more active than Avibactam for at least one, bacterial strain that expresses KPC β-lactamase and/or show a better spectrum of activity

From patent publication US8962843B2, “1,3,4-oxadiazole and 1,3,4-thiadiazole beta-lactamase inhibitors” (priority 2012, dated 2015)
